Where a name gives a salt, the structure may show the parent alone. Read-outs that look alike come from different tables or passages of the source.
Columns and labels:
muscarinic receptors [1] = format: binding, Hooded Lister rats; conditions: displacement of antagonist 3H-QNB (0.27 nM), rat cerebral cortex membranes, 37° C., 30 min
muscarinic receptors [2] = assay: Radio ligand binding: displacement of the muscarinic agonist 3H-OXO-M from rat cerebral cortex membranes; parameters: species or system Hooded Lister rats; conditions: displacement of agonist 3H-OXO-M (2 nM), 2 mM magnesium chloride, 37° C., 30 min

| Compound | IC50 (muscarinic receptors [1]) | IC50 (muscarinic receptors [2]) |
| --- | --- | --- |
| Cc1noc(C23CCCN(CC2)C3)n1 (centres unmarked) [Compound E10, 5-(3-Methyl-1,2,4-oxadiazol-5-yl)-1-azabicyclo[3.2.1]octane oxalate salt] | 4000 nM | 17 nM |
| c1coc(C23CCCN(CC2)C3)c1 (centres unmarked) [Compound E21, 5-(Fur-2-yl)-1-azabicyclo[3.2.1]octane hydrochloride salt] | 3800 nM | 34 nM |
| COC(=O)C12CCN(CC1)C2 [Compound E6, Methyl 1-azabicyclo[2.2.1]hept-4-ylcarboxylate oxalate salt] | 29000 nM | 42 nM |
| c1coc(C23CCCN(CC2)C3)n1 (centres unmarked) [Compound E12, 5-(1,3-Oxazol-2-yl)-1-azabicyclo[3.2.1]octane oxalate salt] | 15000 nM | 145 nM |
| c1cc(C23CCCN(CC2)C3)on1 (centres unmarked) [Compound E15, 5-(1,2-Oxazol-5-yl)-1-azabicyclo[3.2.1]octane oxalate salt] | 7800 nM | 130 nM |
| COC(=O)C12CCCN(CC1)C2 (centres unmarked) [Compound E3, Methyl 1-azabicyclo[3.2.1]oct-5-ylcarboxylate oxalate salt] | 6700 nM | 14 nM |
| Cc1nnc(C23CCCN(CC2)C3)o1 (centres unmarked) [Compound E13, 5-(2-Methyl-1,3,4-oxadiazol-5-yl)-1-azabicyclo3.2.1]octane oxalate salt] | 9400 nM | 39 nM |
| Cc1noc(C23CCN(CC2)C3)n1 [Compound E11, 4-(3-Methyl-1,2,4-oxadiazol-5-yl)-1-azabicyclo[2.2.1]-heptane oxalate salt] | 14000 nM | 93 nM |
| c1nnc(C23CCCN(CC2)C3)o1 (centres unmarked) [Compound E14, 5-(1,3,4-Oxadiazol-2-yl)-1-azabicyclo[3.2.1]octane oxalate salt] | 9000 nM | 160 nM |
| Cc1nnc(C23CCN(CC2)C3)o1 [Compound E17, 4-(2-Methyl-1,3,4-oxadiazol-5-yl)-1-azabicyclo[2.2.1]heptane oxalate salt] | 48000 nM | 230 nM |

From patent publication US4971975A (priority 1987, dated 1990)
